Measurements: patent US20160067211A1, “PHARMACEUTICAL COMPOSITION” (Eberhard Karls Universitaet Tuebingen Medizinische Fakultaet, priority 2013, published 2016)

Assays:
SK-MEL-28 melanoma cells = experiment: Real time cell monitoring assay (xCELLigence), SK-MEL-28; type: cell-based, human; conditions: SK-MEL-28, 20, 50 and 100 μM, 104 hours, vs. control
Procedure: FIG. 5: real time cell monitoring of BLM and SK-MEL-28 melanoma cells treated with 6-PN and 8-PN. (A) BML and SK-MEL-28 cells were treated 24 hours after seeding with different concentrations of 6-PN and 8-PN (20 μM, 50 μM and 100 μM) over a 104 hour time period. The cellular impedance was measured over the entire observation time using the xCELLigence™ SP system and is depicted by the cell index (CI). All CI-values were normalized shortly before the treatment started. […] As a positive control, Triton X-100 0.1% was used to induce cell death. Shown are the mean±SD of three independent experiments, each performed in triplicates (B, C). […]
The human melanoma cell lines BLM and SK-MEL-28 (2.5×10^3 cells/well) were seeded in 96 well plates. The cells were treated after 24 hours with different concentrations of 6-PN or 8-PN (20 μM, 50 μM and 100 μM) and monitored by measurements of electrical impedance in 15 minutes intervals for an overall time span of in total 104 hours using the xCELLigencer® SP Systems (Roche Applied Science). The cell index values were calculated using the RTCA software (1.0.0.0805). […]
The human metastatic melanoma cell lines BLM and SK-MEL-28 were treated once with rising concentrations of 6-PN or 8-PN (20 μM, 50 μM and 100 μM) and monitored continuously for an overall time span of 104 hours using a real time monitoring assay (FIG. 5A). […]

[1] = test system: angiogenesis induced by basic fibroblast growth factor and vascular endothelial growth factor; conditions: induced by bFGF and VEGF, three-dimensional collagen gel in vitro; cited from earlier work

CC(C)=CCc1c(O)cc(O)c2c1OC(c1ccc(O)cc1)CC2=O (centres unmarked) [8-PN, 5,7-Dihydroxy-2-(4-hydroxy-phenyl)-8-(3-methyl-but-2-enyl)-chroman-4-one]
normalized cell index (CI) (SK-MEL-28 melanoma cells): descended over time
angiogenesis [1]: inhibits the angiogenesis
